Values of other authors, collected in patent publication CN101647784A, “卡马西平缓释片及其制备方法” (Beijing Kexin Bicheng Medicine Technology Development Co Ltd, priority 2008, dated 2010).

Details: early epilepsy and single seizures; 406 subjects, immediate versus deferred treatment

NC(=O)N1c2ccccc2C=Cc2ccccc21 [卡马西平]
显著影响: effect on time to 1-year remission | effect on time to 2-year remission | effect on time to first seizure
